Target: T1, cPLA2 (Homo sapiens, UniProt P47712)
T1 sequence (P47712 1-749): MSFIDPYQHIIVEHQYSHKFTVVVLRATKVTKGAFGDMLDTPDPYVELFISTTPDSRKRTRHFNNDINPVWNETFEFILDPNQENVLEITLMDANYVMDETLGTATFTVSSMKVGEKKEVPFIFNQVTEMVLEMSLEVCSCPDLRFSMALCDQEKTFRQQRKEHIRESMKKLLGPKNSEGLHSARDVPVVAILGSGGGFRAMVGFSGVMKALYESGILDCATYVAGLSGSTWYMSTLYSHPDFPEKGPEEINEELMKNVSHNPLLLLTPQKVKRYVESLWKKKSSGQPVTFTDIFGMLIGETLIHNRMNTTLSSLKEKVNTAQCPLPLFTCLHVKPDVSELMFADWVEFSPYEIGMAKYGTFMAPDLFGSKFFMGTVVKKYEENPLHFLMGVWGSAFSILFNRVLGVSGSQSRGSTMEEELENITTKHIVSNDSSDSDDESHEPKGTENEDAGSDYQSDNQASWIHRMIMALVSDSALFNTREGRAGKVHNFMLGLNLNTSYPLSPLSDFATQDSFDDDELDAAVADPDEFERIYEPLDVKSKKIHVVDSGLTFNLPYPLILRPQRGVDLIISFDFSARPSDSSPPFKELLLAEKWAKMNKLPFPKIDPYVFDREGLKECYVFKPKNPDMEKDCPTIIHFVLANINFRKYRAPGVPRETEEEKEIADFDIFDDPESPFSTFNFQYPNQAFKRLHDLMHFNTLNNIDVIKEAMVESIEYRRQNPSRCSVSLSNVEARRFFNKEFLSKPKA
Test: Coumarine assay (hydrolysis of 7-hydroxycoumarinyl 6-heptenoate)
Format: biochemical
Details: 60 μM 7-hydroxycoumarinyl 6-heptenoate, pH 7.5; read-out: Coumarin IC50

| SMILES | IC50 |
| --- | --- |
| O=C(O)c1ccc(CCCc2c(CCNS(=O)(=O)c3ccc(N4CCOCC4)nc3)n(C(c3ccccc3)c3ccccc3)c3ccc(Cl)cc23)cc1 [Example 181, 4-{3-[1-benzhydryl-5-chloro-2-(2-{[(6-morpholin-4-ylpyridin-3-yl)sulfonyl]amino}ethyl)-1H-indol-3-yl]propyl}benzoic acid] | 320 nM |
| CC1CCCN(CCS(=O)(=O)NCCc2c(CCOc3ccc(C(=O)O)cc3)c3cc(Cl)ccc3n2C(c2ccccc2)c2ccccc2)C1 (stereo not drawn) [Example 246, 4-(2-{I-benzhydryl-5-chloro-2-[2-({[2-(3-methylpiperidin-1-yl)ethyl]sulfonyl}amino)ethyl]-1H-indol-3-yl}ethoxy)benzoic acid] | 1200 nM |
| COc1cc(C)ccc1S(=O)(=O)NCCc1c(CCCc2ccc(C(=O)O)cc2)c2cc(Cl)ccc2n1C(c1ccccc1)c1ccccc1 [Example 167, 4-{3-[1-benzhydryl-5-chloro-2-(2-{[(2-methoxy-4-methylphenyl)sulfonyl]amino}ethyl)-1H-indol-3-yl]propyl}benzoic acid] | 190 nM |
| NC(=O)C1CCCN1CCS(=O)(=O)NCCc1c(CCOc2ccc(C(=O)O)cc2)c2cc(Cl)ccc2n1C(c1ccccc1)c1ccccc1 (stereo not drawn) [Example 247, 4-[2-(1-Benzhydryl-2-{2-[2-(2-carbamoyl-pyrrolidin-1-yl)-ethanesulfonylamino]-ethyl}-5-chloro-1H-indol-3-yl)-ethoxy]-benzoic acid] | 1200 nM |
| O=C(O)c1ccc(CCCc2c(CCNS(=O)(=O)c3ccc(Cl)c4nonc34)n(C(c3ccccc3)c3ccccc3)c3ccc(Cl)cc23)cc1 [Example 172, 4-{3-[1-benzhydryl-5-chloro-2-(2-{[(7-chloro-2,1,3-benzoxadiazol-4-yl)sulfonyl]amino}ethyl)-1H-indol-3-yl]propyl}benzoic acid] | 350 nM |
| O=C(O)c1ccc(CCCc2c(CCNS(=O)(=O)c3ccccc3Cl)n(C(c3ccccc3)c3ccccc3)c3ccccc23)cc1 [Example 295, 4-{3-[1-benzhydryl-2-(2-{[(2-chlorophenyl)sulfonyl]amino}ethyl)-1H-indol-3-yl]propyl}benzoic acid] | 550 nM |
| CC(C)Oc1ccccc1S(=O)(=O)NCCc1c(CCOc2ccc(C(=O)O)cc2)c2cc(Cl)ccc2n1C(c1ccccc1)c1ccccc1 [Example 185, 4-(2-{1-Benzhydryl-5-chloro-2-[2-(2-isopropoxy-benzenesulfonylamino)-ethyl]-1H-indol-3-yl}-ethoxy)benzoic acid] | 170 nM |
| CC(CCl)c1ccccc1S(=O)(=O)NCCc1c(CCOc2ccc(C(=O)O)cc2)c2cc(Cl)ccc2n1C(c1ccccc1)c1ccccc1 (stereo not drawn) [Example 278] | 1900 nM |
| CC(C)(C)c1ccccc1S(=O)(=O)NCCc1c(CCCc2ccc(C(=O)O)cc2)c2cc(Cl)ccc2n1C(c1ccccc1)c1ccccc1 [Example 236] | 85 nM |
| O=C(O)c1cccc(OCCc2c(CCNS(=O)(=O)Cc3ccccc3)n(C(c3ccccc3)c3ccccc3)c3ccc(Cl)cc23)c1 [Example 283] | 500 nM |
| O=C(O)c1ccc(CCCc2c(CCNS(=O)(=O)c3c(F)cc(F)cc3F)n(C(c3ccccc3)c3ccccc3)c3ccc(Cl)cc23)cc1 [Example 199, 4-(3-{1-Benzhydryl-5-chloro-2-[2-(2,4,6-trifluoro-benzenesulfonylamino)-ethyl]-1H-indol-3-yl}-propyl)-benzoic acid] | 450 nM |
| Cc1ccccc1S(=O)(=O)NCCc1c(CCCc2ccc(C(=O)O)cc2)c2cc(Cl)ccc2n1C(c1ccccc1)c1ccccc1 [Example 232] | 130 nM |
| O=C(O)c1ccc(OCCc2c(CCNS(=O)(=O)c3c(F)cc(F)cc3F)n(C(c3ccccc3)c3ccccc3)c3ccc(Cl)cc23)cc1 [Example 196, 4-(2-{1-Benzhydryl-5-chloro-2-[2-(2,4,6-trifluoro-benzenesulfonylamino)-ethyl]-1H-indol-3-yl}-ethoxy)-benzoic acid] | 560 nM |
| COc1ccc(S(=O)(=O)NCCc2c(CCCc3ccc(C(=O)O)cc3)c3cc(Cl)ccc3n2C(c2ccccc2)c2ccccc2)c2nonc12 [Example 173, 4-{3-[1-benzhydryl-5-chloro-2-(2-{[(7-methoxy-2,1,3-benzoxadiazol-4-yl)sulfonyl]amino}ethyl)-1H-indol-3-yl]propyl}benzoic acid] | 400 nM |
| Cc1c(S(=O)(=O)NCCc2c(CCCc3ccc(C(=O)O)cc3)c3cc(Cl)ccc3n2C(c2ccccc2)c2ccccc2)cnn1-c1ccccc1 [Example 210, 4-{3-[1-benzhydryl-5-chloro-2-(2-{[(5-methyl-1-phenyl-1H-pyrazol-4-yl)sulfonyl]amino}ethyl)-1H-indol-3-yl]propyl}benzoic acid] | 150 nM |
| O=C(O)c1ccc(OCCc2c(CCNS(=O)(=O)c3ccccc3F)n(C(c3ccccc3)c3ccccc3)c3ccc(Cl)cc23)cc1 [Example 223] | 600 nM |

Second part, the compound after the results:

| IC50 | SMILES |
| --- | --- |
| 400 nM | COc1ccc(S(=O)(=O)NCCc2c(CCOc3ccc(C(=O)O)cc3)c3cc(Cl)ccc3n2C(c2ccccc2)c2ccccc2)c([N+](=O)[O-])c1 [Example 197, 4-(2-{1-Benzhydryl-5-chloro-2-[2-(4-methoxy-2-nitro-benzenesulfonylamino)-ethyl]-1H-indol-3-yl}-ethoxy)-benzoic acid] |
| 540 nM | Cc1c(Cl)cccc1S(=O)(=O)NCCc1c(CCOc2ccc(C(=O)O)cc2)c2cc(Cl)ccc2n1C(c1ccccc1)c1ccccc1 [Example 241, 4-{2-[1-benzhydryl-5-chloro-2-(2-{[(3-chloro-2-methylphenyl)sulfonyl]amino}ethyl)-1H-indol-3-yl]ethoxy}benzoic acid] |
| 330 nM | O=C(O)c1ccc(OCCc2c(CCNS(=O)(=O)Cc3cc(F)cc(F)c3)n(C(c3ccccc3)c3ccccc3)c3ccc(Cl)cc23)cc1 [Example 35, 4-{2-[1-benzhydryl-5-chloro-2-(2-{[(3,5-difluorobenzyl)-sulfonyl]amino}ethyl)-1H-indol-3-yl]ethoxy}benzoic acid] |
| 250 nM | O=C(O)c1ccc(OCCc2c(CCNS(=O)(=O)c3ccccc3OC(F)(F)F)n(C(c3ccccc3)c3ccccc3)c3ccc(Cl)cc23)cc1 [Example 231] |
| 350 nM | COc1ccc(S(=O)(=O)NCCc2c(CCCc3ccc(C(=O)O)cc3)c3cc(Cl)ccc3n2C(c2ccccc2)c2ccccc2)c([N+](=O)[O-])c1 [Example 200, 4-(3-{1-Benzhydryl-5-chloro-2-[2-(4-methoxy-2-nitro-benzenesulfonylamino)-ethyl]-1H-indol-3-yl}-propyl)-benzoic acid] |
| 1400 nM | O=C(O)c1ccc(OCCc2c(CCNS(=O)(=O)c3cccc(-c4ccccc4)c3)n(C(c3ccccc3)c3ccccc3)c3ccc(Cl)cc23)cc1 [Example 207, 4-[2-(1-benzhydryl-2-{2-[(1,1′-biphenyl-3-ylsulfonyl)amino]ethyl}-5-chloro-1H-indol-3-yl)ethoxy]benzoic acid] |
| 190 nM | O=C(O)c1ccc(CCCc2c(CCNS(=O)(=O)c3ccccc3F)n(C(c3ccccc3)c3ccccc3)c3ccc(Cl)cc23)cc1 [Example 222, 4-{3-[1-Benzhydryl-5-chloro-2-(2-{[(2-fluorophenyl)sulfonyl]amino}ethyl)-1H-indol-3-yl)propyl]benzoic acid] |
| 450 nM | Cc1nn(C)c(C)c1S(=O)(=O)NCCc1c(CCOc2ccc(C(=O)O)cc2)c2cc(Cl)ccc2n1C(c1ccccc1)c1ccccc1 [Example 213, 4-{2-[1-benzhydryl-5-chloro-2-(2-{[(1,3,5-trimethyl-1H-pyrazol-4-yl)sulfonyl]amino}ethyl)-1H-indol-3-yl]ethoxy}benzoic acid] |
| 370 nM | CS(=O)(=O)c1ccccc1S(=O)(=O)NCCc1c(CCOc2ccc(C(=O)O)cc2)c2cc(Cl)ccc2n1C(c1ccccc1)c1ccccc1 [Example 205] |
| 1500 nM | O=C(O)c1ccc(OCCc2c(CCNS(=O)(=O)CCN3C[C@@H]4C[C@H]3CO4)n(C(c3ccccc3)c3ccccc3)c3ccc(Cl)cc23)cc1 [Example 251] |
| 180 nM | Cc1nn(C)c(C)c1S(=O)(=O)NCCc1c(CCCc2ccc(C(=O)O)cc2)c2cc(Cl)ccc2n1C(c1ccccc1)c1ccccc1 [Example 212, 4-{3-[1-benzhydryl-5-chloro-2-(2-{[(1,3,5-trimethyl-1H-pyrazol-4-yl)sulfonyl]amino}ethyl)-1H-indol-3-yl]propyl}benzoic acid] |
| 420 nM | O=C(O)c1ccc(OCCc2c(CCNS(=O)(=O)CSc3ccc(Cl)cc3Cl)n(C(c3ccccc3)c3ccccc3)c3ccc(Cl)cc23)cc1 [Example 287, 4-[2-(1-benzhydryl-5-chloro-2-{2-[([[(2,4-dichlorophenyl)sulfanyl]methyl}sulfonyl)amino]ethyl}-1H-indol-3-yl)ethoxy]benzoic acid] |
| 500 nM | Cc1nc(S(=O)(=O)NCCc2c(CCCc3ccc(C(=O)O)cc3)c3cc(Cl)ccc3n2C(c2ccccc2)c2ccccc2)cn1C [Example 257, 4-{3-[1-benzhydryl-5-chloro-2-(2-{[(1,2-dimethyl-1H-imidazol-4-yl)sulfonyl]amino}ethyl)-1H-indol-3-yl]propyl}benzoic acid] |
| 150 nM | Cc1cccc(C)c1S(=O)(=O)NCCc1c(CCOc2ccc(C(=O)O)cc2)c2cc(Cl)ccc2n1C(c1ccccc1)c1ccccc1 [Example 271, 4-{2-[1-benzhydryl-5-chloro-2-(2-{[(2,6-dimethylphenyl)sulfonyl]amino}ethyl)-1H-indol-3-yl]ethoxy}benzoic acid] |

Source: patent publication US7605156B2, “Methods for the use of inhibitors of cytosolic phospholipase A2” (Wyeth, priority 2001, dated 2009)
